{
  "source": "paper PMC9701179",
  "about": "“New tricyclic systems as photosensitizers towards triple negative breast cancer cells” (Archives of Pharmacal Research, 2022)",
  "key": {"MDA-MB-231 cells [1]": {"test_system": "MDA-MB-231 cells", "assay": "MTT cytotoxicity/photocytotoxicity test on human TNBC MDA-MB-231 cells", "type": "cell-based", "conditions": "Homo sapiens", "protocol": "The irradiation device used for the irradiation of cell cultures during the assays was a black box equipped with two Philips UVA lamps with an irradiance of 17 mW cm^−2 and a centered emission peak at 365 nm; UVA irradiance was measured using a Waldmann Variocontrol radiometer, equipped with a UVA sensor. The box was maintained at room temperature inside with a fan and the multiwell plates were placed onto a water-refrigerated metal block.\nHuman triple negative (TNBC) breast MDA-MB-231 carcinoma cells were obtained from American Type Culture Collection (ATCC, Rockville, MD, USA). Human embryonic kidney HEK293 cells were obtained from the European Collection of Cell Cultures (ECACC, Salisbury, UK). Cell lines were maintained in the logarithmic phase at 37 °C in a 5% CO2 atmosphere using the following culture media containing 10% foetal calf serum (Euroclone, Milan, Italy), antibiotics (50 units/mL penicillin and 50 μg/mL streptomycin) and 2 mM l-glutamine: (i) RPMI-1640 medium (Euroclone, Milan, Italy) for MDA-MB-231 4 cells; (ii) DMEM (Euroclone, Milan, Italy) for HEK293 cells.\nCells (5–8 × 10^3 cells/well, dependent upon the growth characteristics of the cell line) were seeded in 96-well microplates in growth medium (100 μL). After 24 h, the medium was removed and replaced with a fresh one containing the compound to be studied at the appropriate concentration. Triplicate cultures were established for each treatment. For photocytotoxicity studies, after 1 h of incubation the medium was replaced with PBS and cells were treated with 2.0 J cm^−2 of UVA light. After irradiation, PBS was replaced with complete proliferation media. For pre-irradiation studies, instead, compounds in PBS were irradiated with 2.0 J cm^−2 of UVA light and subsequently cells were treated with pre-irradiated solutions. Following 24 h, each well was treated with 10 μL of a 5 mg/mL MTT saline solution, and following 5 h of incubation, 100 μL of a sodium dodecyl sulfate (SDS) solution in HCl 0.01 M were added. After an overnight incubation, cell growth inhibition was detected by measuring the absorbance of each well at 570 nm using a Bio-Rad 680 microplate reader. Mean absorbance for each drug dose was expressed as a percentage of the control untreated well absorbance and plotted against drug concentration. IC50 values, the drug concentrations that reduce the mean absorbance at 570 nm to 50% of those in the untreated control wells, were calculated by the four-parameter logistic (4-PL) model. Evaluation was based on means from at least four independent experiments.\nThe new synthetized pyrrolo[1,2-h][1,7]naphthyridinones 7 and pyrido[2,3-c]pyrrolo[1,2-a]azepinones 8 were screened for their cytotoxicity (in the dark) and photocitotoxicity (upon UVA light irradiation at 2.0 J/cm^2) profile on human TNBC cells, MDA-MB-231. The cytotoxicity/photocytotoxicity parameters, expressed in terms of IC50 values obtained by MTT test after 24 h of drug-exposure, are listed in Table 2."}, "MDA-MB-231 cells [2]": {"test_system": "MDA-MB-231 cells", "assay": "Intracellular ROS production (CM-H2DCFDA) under UVA", "type": "cell-based, human", "conditions": "MDA-MB-231, 25 µM, 90 min, UVA 2.0 J/cm^2; antimycin 3 µM positive control", "protocol": "The production of ROS was measured in MDA-MB-231 cells (10^4 per well) grown for 24 h in a 96-well plate in RPMI medium without phenol red (Merk, Germany). Cells were then washed with PBS and loaded with 10 μM 5-(and-6)-chloromethyl-2′,7′-dichlorodihydrofluorescein diacetate acetyl ester (CM–H2DCFDA) (Molecular Probes-Invitrogen, Eugene, OR) for 45 min, in the dark. Afterwards, cells were washed with PBS and incubated with tested compounds (25 µM) for 90 min and after that exposed to UVA light (2.0 J/cm^2). Fluorescence increase was estimated utilizing the wavelengths of 485 nm (excitation) and 527 nm (emission) in a VICTOR X3 (PerkinElmer, USA) plate reader. Antimycin (3 μM, Merk), a potent inhibitor of Complex III in the electron transport chain, was used as positive control.\nROS production under light (UVA, 2.0 J/cm^2) was evaluated in MDA-MB-231 cell samples treated with increasing concentrations of tested compounds or antimycin, a potent inhibitor of Complex III of mitochondria electron chain, used as a positive control under the same experimental conditions (Fig. 4).\nFig. 4 Cellular ROS production (A) and total thiol redox state (B). A Effect of UVA activated tested compounds (25 µM) or antimycin (3 µM) on hydrogen peroxide formation in MDA-MB-231 cancer cells. B Sulfhydryl content in MDA-MB-231 cancer cells incubated for 24 h with UVA activated tested compounds. The sulfhydryl group amount was determined by the DTNB assay. Error bars indicate S.D"}, "MDA-MB-231 cells [3]": {"test_system": "MDA-MB-231 cells", "assay": "Mitochondrial membrane potential (Mito-ID kit)", "type": "cell-based, human", "conditions": "MDA-MB-231, UVA 2.0 J/cm^2; CCCP positive control", "protocol": "The ΔΨ was assayed using the Mito-ID® Membrane Potential Kit according to the manufacturer’s instructions (Enzo Life Sciences, Farmingdale, NY, USA) as previously described. Briefly, MDA-MB-231 cells (8 × 10^3 per well) were seeded in 96-well plates; after 24 h, cells were washed with PBS and loaded with Mito-ID Detection Reagent for 30 min at 37 °C in the dark. Afterwards, cells were incubated with increasing concentrations of tested compounds for 90 min and after that exposed to UVA light (2.0 J/cm^2). CCCP (Carbonyl cyanide 3-chlorophenyl-hydrazone) was used as positive control. Fluorescence intensity was estimated using a VICTOR X3 (PerkinElmer, USA) plate reader at 490 (excitation) and 590 nm (emission).\nInduction of ROS production can in turn prompt the collapse of mitochondrial membrane potential as well as loss of mitochondrial integrity and functioning. […] MDA-MB-231 TNBC cells were treated with tested compounds upon UVA irradiation and the percentage of cells with hypopolarized mitochondrial membrane potential was determined fluorometrically by means of the Mito-ID® Membrane Potential Kit.\nFig. 5 Effects on mitochondrial membrane potential (A) and cell death induction (B) in human breast MDA-MB-231 cancer cells. A Cells were treated with 7h and 8e and stained with TMRM (10 nM). Fluorescence was estimated at 490 nm (excitation) and 590 nm (emission). Data are the means of five independent experiments. Error bars indicate S.D. * P < 0.05. B Cells were treated with concentrations of 7h and 8e equal to IC50 for 24 h and stained with the fluorescent dyes Hoechst 33342 and PI"}},
  "note": "Where two headings read alike, the source gives them in different places.",
  "data": [
    {"smiles": "CC(C)OC(=O)c1ccc2n1CCCc1cc(S(=O)(=O)c3ccccc3)c(=O)n(C)c1-2", "note": "[Compound 8d, Propan-2-yl 3-(benzenesulfonyl)-1-methyl-2-oxo-1,5,6,7-tetrahydro-2H-pyrido[2,3-c]pyrrolo[1,2-a]azepine-9-carboxylate]", "values": [
      {"measurement": "IC50", "setting": "MDA-MB-231 cells [1]; MDA-MB-231, in the dark, 1 h pre-treatment, recovered for total 24 h, read-out: Dark IC50 (µM) ± S.D", "value": "> 50", "unit": "µM"},
      {"measurement": "IC50", "setting": "MDA-MB-231 cells [1]; light or radiation study, MDA-MB-231, 1 h pre-treatment, UVA 2.0 J/cm^2, recovered for total 24 h, read-out: UVA (2.0 J/cm^2) IC50 (µM) ± S.D", "value": "> 50", "unit": "µM"},
      {"measurement": "Cellular ROS production (hydrogen peroxide formation)", "setting": "MDA-MB-231 cells [2]", "value": "hardly effective in inducing any ROS basal level production increase"},
      {"measurement": "Cells with depolarized mitochondria (mitochondrial membrane potential)", "setting": "MDA-MB-231 cells [3]", "value": "did not induce a substantial change in mitochondrial membrane potential"}
    ]}
  ]
}
